Results on nine compounds are retold here after patent US20050228180A1, “Alpha, omega-dicarboximide derivatives as useful uro-selective a1a adrenoceptor blockers” (priority 2002, published 2005).

Structures can show the parent of a compound that is named as a salt.

The test system of series [1] is conscious beagle dogs. The experiment in a line: In vivo uroselectivity study: phenylephrine response on MAP and IUP. Conditions: 3 μg/kg p.o. Also on record: species or system dog. An excerpt: In order to assess the uroselectivity in vivo, the effects of these compounds were studied on mean arterial pressure (MAP) and intraurethral pressure (UP) in conscious beagle dogs as per the method of Brune et al. (Pharmacol., 1996, 53:356). Briefly, male dogs were instrumented for chronic continuous measurement of arterial blood pressure by implanting a telemetry transmitter (TL11M2-D70-PCT, Data Sci. International, St. Paul, Minn. USA) into the femoral artery, two weeks prior to the study. During the recovery period, the animal was acclimatized to stay in the sling restraint. On the day of testing, overnight fasted animal was placed in the sling restraint. A Swan-Ganz. Balloon tipped catheter was introduced into the urethra at the level of prostate and the balloon was inflated (Brune. et. al. 1996). After recording the base line readings, effect of 16 μg/kg, phenylephrine (i.v.) on MAP and IUP was recorded. The response of phenylephrine to MAP and […] were recorded at 0.5, 1, 2, 3, 4, 6, 9 and 24 hours after the oral administration of vehicle or the test drug. The changes in MAP were recorded on line using Dataquest Software (Data Sci. International, St. Paul, Minn. USA). The change in phenylephrine response on […] administration after the test drug administration was calculated as percent change of that of control values. Area under curve was calculated, and the ratio of the values for MAP and IUP was used for calculating the uroselectivity (Table III).

Series [2] has as its target T1, α1B adrenoceptor (Rattus norvegicus, UniProt P15823).
T1 construct: from tissue; host or cells: rat liver membranes
T1 sequence (P15823 1-515): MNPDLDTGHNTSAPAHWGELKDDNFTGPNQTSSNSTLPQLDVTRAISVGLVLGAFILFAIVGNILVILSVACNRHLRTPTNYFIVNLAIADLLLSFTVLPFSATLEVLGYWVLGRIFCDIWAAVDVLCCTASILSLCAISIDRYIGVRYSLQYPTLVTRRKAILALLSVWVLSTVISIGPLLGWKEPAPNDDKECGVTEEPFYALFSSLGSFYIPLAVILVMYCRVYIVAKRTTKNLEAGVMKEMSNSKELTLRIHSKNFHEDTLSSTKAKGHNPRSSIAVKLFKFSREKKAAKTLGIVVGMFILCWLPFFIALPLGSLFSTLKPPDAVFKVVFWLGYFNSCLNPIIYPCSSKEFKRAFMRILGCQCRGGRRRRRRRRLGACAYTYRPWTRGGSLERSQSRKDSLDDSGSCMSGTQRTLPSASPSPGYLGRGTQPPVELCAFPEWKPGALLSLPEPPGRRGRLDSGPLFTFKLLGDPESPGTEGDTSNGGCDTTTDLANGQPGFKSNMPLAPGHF
The experiment in a line: Radioligand binding, [3H] prazosin displacement, rat liver membranes. Conditions: read-out: Affinity (Ki) α1B (Rat Liver). Summed up: (§1)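 Displacement of [3H]prazosin measured by filtration and counting, with Ki from IC50 via Cheng–Prusoff and nonspecific binding set by 300 nM prazosin. Native rat submaxillary (α1A) or liver (α1B) membranes, 150-250 μg protein, 1 h at 24-25° C in Tris/EDTA pH 7.4.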

In series [3] the target is T2, α1A adrenoceptor (Rattus norvegicus, UniProt P43140).
T2 construct: from tissue; host or cells: rat submaxillary gland membranes
T2 sequence (P43140 1-466): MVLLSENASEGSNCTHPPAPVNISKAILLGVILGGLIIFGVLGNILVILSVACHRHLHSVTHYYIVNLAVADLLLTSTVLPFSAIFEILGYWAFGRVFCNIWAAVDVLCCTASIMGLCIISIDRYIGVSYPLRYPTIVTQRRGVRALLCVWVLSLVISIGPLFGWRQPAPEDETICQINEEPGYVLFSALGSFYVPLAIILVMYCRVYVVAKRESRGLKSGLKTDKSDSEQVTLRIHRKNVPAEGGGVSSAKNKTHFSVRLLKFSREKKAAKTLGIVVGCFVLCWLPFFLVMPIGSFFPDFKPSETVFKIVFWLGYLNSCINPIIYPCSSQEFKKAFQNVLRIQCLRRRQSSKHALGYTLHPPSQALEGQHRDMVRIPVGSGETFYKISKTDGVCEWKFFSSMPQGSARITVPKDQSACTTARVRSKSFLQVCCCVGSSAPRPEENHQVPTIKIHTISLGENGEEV
The experiment in a line: Radioligand binding, [3H] prazosin displacement, rat submaxillary membranes. Conditions: for Ki: [3H] prazosin displacement, rat submaxillary membranes, read-out: Affinity (Ki) α1A (Rat Submaxillary); for α1B/α1A: ratio of binding affinities, rat liver / rat submaxillary. The method in brief:
as §1

In series [4] the target is T3, α1A adrenoceptor (prostate) (Rattus norvegicus, UniProt P43140).
T3 construct: from tissue; host or cells: isolated prostate tissue
T3 sequence (P43140 1-466): T2 sequence (P43140 1-466)
The experiment in a line: In vitro functional assay, isolated prostate, phenylepinephrine contraction. The series is classed as cell-based. Conditions: for Selectivity α1B/α1A / Selectivity α1D/α1A: functional, from pKB; for Kb: rat prostate, phenylepinephrine, read-out: α Adrenoceptor Subtype (pKB) α1A (converted). The text has this:
(§2) In order to study selectivity of action of these compounds towards different a-adrenoceptor subtypes, the ability of these compounds to antagonise (α1D) prostate (α1A) and spleen (α1B) was studied. Aorta and spleen tissues were isolated from urethane anaesthetized (1.5 g/kg) male wister rats. Isolated tissues were mounted in organ bath containing Krebs Henseleit buffer of the following composition (mM): NaCl 118; KCl 4.7; CaCl2 2.5; MgSO4 7H2O 1.2; NaHCO3 25; KH2PO4 1.2; glucose 11.5. Buffer was maintained at 37° C. and aereated with a mixture of 95% O2 and 5% CO2. A resting tension of 2 g (aorta) or 1 g (spleen and prostate) was applied to tissues. Contractile response was monitored using a force displacement transducer and recorded on chart recorders. Tissues were allowed to equilibrate for 2 hours. At the end of equilibration period, concentration response curves to norepinephrine (aorta) and phenylepinephrine (spleen and prostate) were obtained in the absence and presence of tested compound (at concentration of […]). Antagonist affinity was calculated and expressed as pKB values in Table II.

In series [5] the target is T4, α1B adrenoceptor (spleen) (Rattus norvegicus, UniProt P15823).
T4 construct: Isolated tissues were mounted in organ bath containing Krebs Henseleit buffer; from tissue; host or cells: isolated rat spleen
T4 sequence (P15823 1-515): T1 sequence (P15823 1-515)
The experiment in a line: In vitro functional assay, isolated spleen, phenylepinephrine contraction. The series is classed as cell-based. Conditions: read-out: α Adrenoceptor Subtype (pKB) α1B (converted).
From the text: as §2

The target of series [6] is T5, α1D adrenoceptor (aorta) (Rattus norvegicus, UniProt P23944).
T5 construct: Isolated tissues were mounted in organ bath containing Krebs Henseleit buffer; from tissue; host or cells: isolated rat aorta
T5 sequence (P23944 1-561): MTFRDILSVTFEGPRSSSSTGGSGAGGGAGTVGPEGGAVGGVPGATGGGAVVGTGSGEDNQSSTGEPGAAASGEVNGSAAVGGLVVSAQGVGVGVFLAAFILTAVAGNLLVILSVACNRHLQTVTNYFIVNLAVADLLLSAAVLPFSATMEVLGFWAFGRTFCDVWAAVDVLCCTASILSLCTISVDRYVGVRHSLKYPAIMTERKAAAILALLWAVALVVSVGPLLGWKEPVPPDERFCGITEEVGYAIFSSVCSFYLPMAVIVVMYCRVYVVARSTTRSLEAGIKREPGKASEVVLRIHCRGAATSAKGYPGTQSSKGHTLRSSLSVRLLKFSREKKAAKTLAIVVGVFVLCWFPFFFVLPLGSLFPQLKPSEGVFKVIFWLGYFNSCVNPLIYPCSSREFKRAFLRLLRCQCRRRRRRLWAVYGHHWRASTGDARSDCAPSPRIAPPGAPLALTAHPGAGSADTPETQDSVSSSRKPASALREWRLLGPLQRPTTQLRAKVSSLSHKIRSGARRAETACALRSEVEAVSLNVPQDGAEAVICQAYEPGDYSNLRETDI
Description: In vitro functional assay, isolated aorta, norepinephrine contraction. In kind it is cell-based. Conditions: read-out: α Adrenoceptor Subtype (pKB) α1D (converted).
From the text: as §2

Where [7] appears, read: percent change of phenylephrine response over 24 hours.

Broadly, the melting point is the temperature of the solid-liquid transition. For the compound `CC(=O)OC1C=CCC2C(=O)N(CCCN3CCN(c4ccccc4OC(C)C)CC3)C(=O)C12` (centres unmarked) (as salt: hydrochloride) [Compound No. 40, 2-[3-{4-(2-Isopropoxyphenyl)piperazin-1-yllpropyl]4-acetoxy-3a,4,7,7a-tetrahydro-1H-isoindole-1,3(2H)-dione hydrochloride], the melting point is 224 to 227 °C.
On to `CCOc1ccccc1OCCN[C@H](C)Cc1ccc(OC)c(S(N)(=O)=O)c1` (racemic) [Tamsulosin (SR), Tamsulosin, reference compound], for which the “Uroselectivity Ratio IUP/MAP” value in series [1] was 1.47. In series [1] (setting [7]), the “Area Under Curve IUP” value is 592 and the “Area Under Curve MAP” value was 868.
For orientation: Ki means the equilibrium dissociation constant of an inhibitor or competing ligand from its target. For `Cl.O=C1C2CC=CCC2C(=O)N1CCCN1CCN(c2ccccc2OC2CCCC2)CC1` (centres unmarked) [Compound No. 43, 2-[3-{4-(2-Cyclopentyloxyphenyl)piperazin-1-yl}propyl]-3a,4,7,7a-tetrahydro-1H-isoindole-1,3(2H)-dione hydrochloride], in series [2], the Ki came to 50 nM. In series [3], the Ki is 0.5 nM and the α1B/α1A amounted to 100. Moreover, in series [4], the “Selectivity α1B/α1A” value amounted to 7.4, the “Selectivity α1D/α1A” value was found to be 0.43 and the Kb is 1.7 nM. In series [5], the Kb is 12.6 nM. Moreover, the Kb in series [6] was 0.741 nM.
As for `Cl.O=C1CCCC(=O)N1CCCN1CCN(c2ccccc2O)CC1` [compound 01, 1-[4-(2-Hydroxyphenyl)piperazin-1-yl]-3-(2,6-dioxopiperidin-1-yl)propane hydrochloride], the values for the Ki in series [2] and in series [3] were 80 nM and 8.55 nM, respectively. The α1B/α1A in series [3] stood at 9. Moreover, the “Selectivity α1B/α1A” value in series [4] worked out at 3.8. Also, the “Selectivity α1D/α1A” value in series [4] came to 1.2. Moreover, the results for the Kb in series [4], in series [5] and in series [6] were 10 nM, 38 nM and 12 nM, respectively.
On to `Cl.O=C1C2CC=CCC2C(=O)N1CCCN1CCN(c2ccccc2OCC(F)(F)F)CC1` (centres unmarked) [compound 02, 2-[3-{4-(2-(2,2,2-Trifluoroethoxy)phenyl)piperazin-1-yl}propyl]-3a, 4,7,7a-tetrahydro-1H-isoindole-1,3(2H)-dione hydrochloride], for which the figures for the inhibition constant (Ki) in series [2] and in series [3] were 27 nM and 0.17 nM, respectively. Moreover, the α1B/α1A in series [3] came to 159. Besides, the “Selectivity α1B/α1A” value in series [4] was 7.07. In series [4], the “Selectivity α1D/α1A” value was found to be 0.17. Besides, the values for the Kb in series [4], in series [5] and in series [6] were 0.182 nM, 1.29 nM and 0.0316 nM, respectively.
Consider `O=C1CCCC(=O)N1CCCN1CCN(c2ccccc2OCC(F)(F)F)CC1` [compound 03], for which the Ki in series [2] stood at 47 nM. In addition, in series [3], the Ki came out at 0.26 nM and the α1B/α1A was 181. Besides, in series [4], the “Selectivity α1B/α1A” value amounted to 0.7, the “Selectivity α1D/α1A” value was determined as 0.38 and the Kb is 0.389 nM. Also, the Kb in series [5] was 0.275 nM. The Kb in series [6] is 0.148 nM.
As to `CC(C)Oc1ccccc1N1CCN(CC(O)CN2C(=O)C3CC=CCC3C2=O)CC1.Cl` (centres unmarked) [compound 07, 2-[3-{4-(2-Isopropoxyphenyl)piperazin-1-yl}-2-hydroxypropyl]-3a,4,7,7a-tetrahydro-1H-isoindole-1,3(2H)-dione hydrochloride], the Ki in series [2] amounted to 106 nM; in series [3] it was 0.56 nM. For the same compound, the α1B/α1A in series [3] was 189. Besides, the “Selectivity α1B/α1A” value in series [4] was determined as 13. Also, in series [4], the “Selectivity α1D/α1A” value is listed as 1.9. Moreover, the Kb was 1.23 nM in series [4], 15.8 nM in series [5] and 2.29 nM in series [6].
Consider `CC(C)Oc1ccccc1N1CC[N+]([O-])(CCCN2C(=O)C3CC=CCC3C2=O)CC1` (centres unmarked) [compound 08, 2-[3-{4-(2-Isopropoxyphenyl)piperazin-1-yl, 1-N-oxide}propyl]-3a,4,7,7a-tetrahydro-1H-isoindole-1,3(2H)-dione], for which the Ki in series [2] came to 4770 nM; in series [3], 6.6 nM. In addition, the α1B/α1A in series [3] is 722. In series [4], the “Selectivity α1B/α1A” value is listed as 0.24. Also, the “Selectivity α1D/α1A” value in series [4] stood at 5.24. Also, the Kb in series [4] was 4.17 nM; in series [5], 1.02 nM; in series [6], 21.9 nM.
Regarding `CC(C)Oc1ccccc1[N+]1([O-])CC[N+]([O-])(CCCN2C(=O)C3CC=CCC3C2=O)CC1` (centres unmarked) [compound 09, 2-[3-{4-(2-Isopropoxyphenyl)piperazin-1-yl, 1,4-N,N-dioxide}propyl]-3a,4,7,7a-tetrahydro-1H-isoindole-1,3-(2H)-dione], the Ki was greater than 1000 nM in series [2] and 1070 nM in series [3]. The “Selectivity α1B/α1A” value in series [4] was 3.3. Besides, the “Selectivity α1D/α1A” value in series [4] was 14. Also, the values for the Kb in series [4], in series [5] and in series [6] were 7.08 nM, 23.4 nM and 100 nM, respectively.
